Results: PMC9063844, “Synergic action of an inserted carbohydrate-binding module in a glycoside hydrolase family 5 endoglucanase” (Acta Crystallographica. Section D, Structural Biology, 2022)

Assays:
[1] = target: T1, ΔCBM (Meiothermus taiwanensis, UniProt A0A399DY85, DEL251-380); test: X-ray crystal structure (crystal soaked with […] cellobiose); type: binding; conditions: 1.53 Å; between Trp43 and Trp224
T1 construct: gene celH; CBM-deleted MtGlu5, residues 1-235 joined to 366-455 (catalytic domain only); pET-21, C-terminal His6; E. coli BL21(DE3)

[2] = target: T2, MtGlu5 (Meiothermus taiwanensis, UniProt A0A399DY85); test: hydrolysis, specific activity (reducing sugar, DNS); type: biochemical; conditions: optimum pH 5.0, 60 °C
T2 construct: gene celH; residues 15-470, signal peptide removed, catalytic domain with inserted CBM29-like domain (236-365); pET-21, C-terminal His6; E. coli BL21(DE3)

[3] = target: T1, ΔCBM; test: turnover in the soaked crystal (glucose found instead of cellopentaose); type: binding; conditions: crystal soak, 10 mM cellopentaose
[4] = target: T1, ΔCBM; test: X-ray crystal structure (crystal soaked with cellopentaose); type: binding; conditions: 1.53 Å; between Trp43 and Trp224; glucose from cellopentaose cleavage
[5] = target: T2, MtGlu5; test: X-ray crystal structure (co-crystallised with CMC); type: binding; conditions: 2.99 Å; glucose from CMC hydrolysis, stacked between Trp43 and Trp224 in the catalytic pocket (-2 or -3 subsite)

T1 sequence (A0A399DY85 entry or part of it DEL251-380): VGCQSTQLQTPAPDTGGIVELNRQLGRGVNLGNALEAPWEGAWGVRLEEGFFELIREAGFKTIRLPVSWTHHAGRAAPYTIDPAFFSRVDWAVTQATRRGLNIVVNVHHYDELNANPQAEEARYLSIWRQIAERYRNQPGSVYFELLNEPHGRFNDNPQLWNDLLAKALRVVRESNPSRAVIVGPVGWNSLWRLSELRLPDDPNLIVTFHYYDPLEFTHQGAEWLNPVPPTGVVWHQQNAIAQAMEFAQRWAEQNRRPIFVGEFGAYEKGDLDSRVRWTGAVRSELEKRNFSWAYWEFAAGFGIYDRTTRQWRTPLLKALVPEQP
T2 sequence (A0A399DY85 entry or part of it): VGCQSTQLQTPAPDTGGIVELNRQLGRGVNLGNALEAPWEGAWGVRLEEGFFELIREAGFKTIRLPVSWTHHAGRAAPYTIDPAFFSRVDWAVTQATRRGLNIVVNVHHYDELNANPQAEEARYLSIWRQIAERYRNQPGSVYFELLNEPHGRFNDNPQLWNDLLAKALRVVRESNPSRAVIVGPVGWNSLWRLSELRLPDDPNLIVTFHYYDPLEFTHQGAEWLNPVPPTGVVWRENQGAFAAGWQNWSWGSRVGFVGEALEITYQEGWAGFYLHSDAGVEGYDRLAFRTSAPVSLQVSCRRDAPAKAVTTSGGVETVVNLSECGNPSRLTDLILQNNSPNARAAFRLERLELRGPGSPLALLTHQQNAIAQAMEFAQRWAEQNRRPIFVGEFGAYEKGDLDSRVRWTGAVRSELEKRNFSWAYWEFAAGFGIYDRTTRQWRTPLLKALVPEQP

Compound: OC[C@H]1O[C@@H](O[C@H]2[C@H](O)[C@@H](O)C(O)O[C@@H]2CO)[C@H](O)[C@@H](O)[C@@H]1O (some centres unmarked) [cellobiose]
- X-ray crystal structure (crystal soaked with 10 mM cellobiose) [1]: ΔCBM crystals in complex with glucose and cellobiose were obtained by soaking with cellopentaose and cellobiose

Compound: OC[C@H]1O[C@@H](O[C@H]2[C@H](O)[C@@H](O)[C@H](O[C@H]3[C@H](O)[C@@H](O)[C@H](O[C@H]4[C@H](O)[C@@H](O)[C@H](O[C@H]5[C@H](O)[C@@H](O)C(O)O[C@@H]5CO)O[C@@H]4CO)O[C@@H]3CO)O[C@@H]2CO)[C@H](O)[C@@H](O)[C@@H]1O (some centres unmarked) [cellopentaose]
- hydrolysis, specific activity (reducing sugar, DNS) [2]: specific activities of MtGlu5 towards CMC, β-glucan (barley) and cellopentaose
- turnover in the soaked crystal (glucose found instead of cellopentaose) [3]: presence of bound glucose rather than cellopentaose in the former crystal

Compound: OC[C@H]1OC(O)[C@H](O)[C@@H](O)[C@@H]1O (some centres unmarked) [glucose]
- X-ray crystal structure (crystal soaked with cellopentaose) [4]: ΔCBM crystals in complex with glucose and cellobiose were obtained by soaking with cellopentaose and cellobiose
- X-ray crystal structure (co-crystallised with CMC) [5]: Bound glucose was observed in the MtGlu5 crystal
